Target: LRRK2 G2019S (Homo sapiens, UniProt Q5S007, G2019S)
Test: LRRK2 G2019S TR-FRET kinase assay (LRRKtide substrate)
Type: biochemical
Conditions: LRRK2 G2019S enzyme 5 nM, 134 μM ATP, 60 minute reaction, 23° C.
Procedure: Materials: • LRRK2 G2019S enzyme • Substrate (LRRKtide) • ATP • TR-FRET dilution buffer • pLRRKtide antibody • 384-well assay plate • DMSO
Enzyme Reaction Conditions
23° C. reaction temperature
10 μL total reaction volume
Detection Reaction Conditions
1×TR-FRET dilution buffer
2 nM antibody • 23° C. reaction temperature • 10 μL total reaction volume
Compounds are prepared by initially diluting to 1 mM with DMSO. 35 μL of reference compound solution, 35 μL of test compound solution, and 35 μL HPE are successively added to the source plate (384-well assay plate, Labcyte). The plates are centrifuged at 2500 rpm for 1 minute and sealed in foil. POD is used to perform a 3.162 fold serial dilution and 100 nL of reference compound solution, test compound solution, HPE and ZPE are transferred to assay plates. The assay plate is centrifuged at 2500 rpm for 1 minute, and sealed with foil.
To perform the enzyme reaction, 5 μL of LRRKtide substrate and kinase mixture in assay buffer is added to all wells of the assay plate. The plate is centrifuged to concentrate the mixture at the bottom of the wells. The assay plate is incubated at 23° C. for 20 minutes. Following incubation, 5 μL of 2×ATP in assay buffer is added to each well, and plates are centrifuged to concentrate the mixture at the bottom of the wells. The plate is incubated at 23° C. for 60 minutes.
To perform the detection of the reaction, EDTA completely mixed in TR-FRET dilution buffer is added to antibody reagent. 10 μL of detection reagent is added to all wells of each well of the assay plate and the plate is centrifuged to concentrate the mixture at the bottom of the wells. The plate is then incubated at 23° C. for 60 minutes. Plates are read on Perkin Elmer Envision 2104 instrument in TR-FRET mode using a 340 nm excitation filter, 520 nm fluorescence emission filter, and 490 or 495 nm terbium emission filter.

Sequence of LRRK2 G2019S (Q5S007 whole entry G2019S): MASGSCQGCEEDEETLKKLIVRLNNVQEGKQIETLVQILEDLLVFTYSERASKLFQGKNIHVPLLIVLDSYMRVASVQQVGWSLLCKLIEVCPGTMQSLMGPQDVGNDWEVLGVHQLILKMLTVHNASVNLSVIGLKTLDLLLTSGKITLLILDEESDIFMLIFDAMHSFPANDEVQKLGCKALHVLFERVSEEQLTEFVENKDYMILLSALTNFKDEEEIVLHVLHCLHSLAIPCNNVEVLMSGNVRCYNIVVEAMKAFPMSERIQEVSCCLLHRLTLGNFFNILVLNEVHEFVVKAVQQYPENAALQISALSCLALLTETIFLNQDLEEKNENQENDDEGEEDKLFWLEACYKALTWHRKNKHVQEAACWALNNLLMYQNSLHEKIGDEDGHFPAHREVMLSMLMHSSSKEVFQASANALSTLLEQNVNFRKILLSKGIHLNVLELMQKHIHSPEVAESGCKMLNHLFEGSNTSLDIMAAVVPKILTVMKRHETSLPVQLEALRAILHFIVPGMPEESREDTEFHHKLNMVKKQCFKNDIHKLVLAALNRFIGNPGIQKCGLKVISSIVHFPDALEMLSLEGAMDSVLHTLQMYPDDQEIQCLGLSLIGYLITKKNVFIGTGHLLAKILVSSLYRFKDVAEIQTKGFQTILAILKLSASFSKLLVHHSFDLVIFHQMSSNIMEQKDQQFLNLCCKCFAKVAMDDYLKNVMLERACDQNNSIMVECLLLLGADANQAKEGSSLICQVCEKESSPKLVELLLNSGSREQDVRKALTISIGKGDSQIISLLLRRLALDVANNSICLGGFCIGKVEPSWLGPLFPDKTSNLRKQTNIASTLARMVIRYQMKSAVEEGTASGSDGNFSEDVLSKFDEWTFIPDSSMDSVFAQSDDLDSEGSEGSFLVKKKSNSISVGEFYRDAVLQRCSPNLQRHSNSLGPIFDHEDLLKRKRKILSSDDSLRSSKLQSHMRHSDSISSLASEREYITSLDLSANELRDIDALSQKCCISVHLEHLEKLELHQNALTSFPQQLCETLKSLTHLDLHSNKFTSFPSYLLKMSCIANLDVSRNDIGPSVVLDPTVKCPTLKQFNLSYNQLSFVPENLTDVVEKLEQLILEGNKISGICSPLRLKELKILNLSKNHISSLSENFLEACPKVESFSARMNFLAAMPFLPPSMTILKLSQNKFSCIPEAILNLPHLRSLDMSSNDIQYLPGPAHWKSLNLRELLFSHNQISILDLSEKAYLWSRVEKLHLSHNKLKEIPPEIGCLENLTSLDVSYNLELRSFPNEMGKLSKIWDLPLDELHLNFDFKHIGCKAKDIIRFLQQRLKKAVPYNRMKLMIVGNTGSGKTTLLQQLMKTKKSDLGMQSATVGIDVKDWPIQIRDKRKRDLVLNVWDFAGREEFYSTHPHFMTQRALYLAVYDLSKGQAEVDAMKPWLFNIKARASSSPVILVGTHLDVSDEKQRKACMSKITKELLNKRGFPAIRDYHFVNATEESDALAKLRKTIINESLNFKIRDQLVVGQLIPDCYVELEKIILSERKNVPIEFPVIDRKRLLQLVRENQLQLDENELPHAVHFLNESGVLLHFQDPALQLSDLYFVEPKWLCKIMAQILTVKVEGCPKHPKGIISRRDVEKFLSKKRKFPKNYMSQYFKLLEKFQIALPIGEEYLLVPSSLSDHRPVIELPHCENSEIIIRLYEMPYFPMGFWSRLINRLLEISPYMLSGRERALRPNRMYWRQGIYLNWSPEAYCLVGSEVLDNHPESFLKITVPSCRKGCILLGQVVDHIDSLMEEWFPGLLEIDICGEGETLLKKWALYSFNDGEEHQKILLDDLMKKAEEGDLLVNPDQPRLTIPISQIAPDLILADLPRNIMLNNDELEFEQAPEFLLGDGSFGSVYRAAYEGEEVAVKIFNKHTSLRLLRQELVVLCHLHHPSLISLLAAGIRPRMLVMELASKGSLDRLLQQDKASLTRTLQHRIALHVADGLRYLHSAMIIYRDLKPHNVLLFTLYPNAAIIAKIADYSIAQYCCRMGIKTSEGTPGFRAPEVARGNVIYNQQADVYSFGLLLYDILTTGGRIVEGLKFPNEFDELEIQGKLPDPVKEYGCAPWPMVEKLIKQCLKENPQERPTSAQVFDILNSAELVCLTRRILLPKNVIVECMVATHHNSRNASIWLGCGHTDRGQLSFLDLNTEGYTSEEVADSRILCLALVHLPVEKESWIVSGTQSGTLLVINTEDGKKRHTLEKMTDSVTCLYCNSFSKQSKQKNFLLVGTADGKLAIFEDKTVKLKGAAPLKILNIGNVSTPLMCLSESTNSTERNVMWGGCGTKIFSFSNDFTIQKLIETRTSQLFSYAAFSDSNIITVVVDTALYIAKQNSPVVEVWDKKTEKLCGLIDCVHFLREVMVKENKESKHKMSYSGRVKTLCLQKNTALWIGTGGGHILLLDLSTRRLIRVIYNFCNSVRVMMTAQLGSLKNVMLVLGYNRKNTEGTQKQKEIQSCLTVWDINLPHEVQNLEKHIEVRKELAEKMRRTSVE

**Q.** How did the IC50 turn out when `Cc1nn(C2C[C@]2(C)C#N)cc1Nc1ncc(C(F)(F)F)c(NC2CC2)n1` (single isomer, unassigned) [Compound 7] was run?
**A.** < 30 nM

**Q.** Which IC50 does the source give for `CCNc1nc(Nc2cn(C3C[C@H]3C#N)nc2C2CC2)ncc1C(F)(F)F` (single isomer, unassigned) [Compound 17] here?
**A.** < 30 nM

**Q.** How did the IC50 turn out when `Cc1nn(C2C[C@]2(C)C#N)cc1Nc1ncc(C(F)(F)F)c(NC2(C)CC2)n1` (single isomer, unassigned) [Compound 13] was run?
**A.** < 30 nM

**Q.** `Cc1c(Nc2ncc(C(F)(F)F)c(NC3CC3)n2)cnn1C1C[C@]1(C)C#N` (single isomer, unassigned) [Compound 15] was tested. Which IC50 did it give?
**A.** < 30 nM

**Q.** `Cc1c(Nc2ncc(C(F)(F)F)c(NC3CC3)n2)cnn1C1C[C@@]1(C)C#N` (single isomer, unassigned) [Compound 16] was tested. Which IC50 did it give?
**A.** < 30 nM

**Q.** `CNc1nc(Nc2cn(C3C[C@]3(C)C#N)nc2C2CC2)ncc1C(F)(F)F` (single isomer, unassigned) [Compound 3] was tested. Which IC50 did it give?
**A.** < 30 nM

**Q.** Which IC50 does the source give for `CCNc1nc(Nc2cnn(C3C[C@@H]3C#N)c2C)ncc1C(F)(F)F` (single isomer, unassigned) [Compound 18] here?
**A.** < 30 nM

**Q.** Which IC50 does the source give for `Cc1nn(C2C[C@@]2(C)C#N)cc1Nc1ncc(C(F)(F)F)c(NC2(C)CC2)n1` (single isomer, unassigned) [Compound 14] here?
**A.** < 30 nM

**Q.** How did the IC50 turn out when `CCNc1nc(Nc2cn(C3C[C@]3(C)C#N)nc2C)ncc1Br` (single isomer, unassigned) [Compound 11] was run?
**A.** < 30 nM

**Q.** With `CNc1nc(Nc2cn(C3C[C@]3(C)C#N)nc2C)ncc1C(F)(F)F` (single isomer, unassigned) [Compound 5] as the molecule, how does the IC50 read?
**A.** < 30 nM

**Q.** How did the IC50 turn out when `CCNc1nc(Nc2cn(C3C[C@]3(C)C#N)nc2C2CC2)ncc1C(F)(F)F` (single isomer, unassigned) [Compound 4, 2-(3-cyclopropyl-4-((4-(ethylamino)-5-(trifluoromethyl)pyrimidin-2-yl)amino)-1H-pyrazol-1-yl)-1-methylcyclopropanecarbonitrile] was run?
**A.** < 30 nM

**Q.** With `CCNc1nc(Nc2cn(C3C[C@@]3(C)C#N)nc2C)ncc1C(F)(F)F` (single isomer, unassigned) [Compound 8] as the molecule, how does the IC50 read?
**A.** < 30 nM

**Q.** With `CNc1nc(Nc2cn(C3C[C@@]3(C)C#N)nc2C)ncc1C(F)(F)F` (single isomer, unassigned) [Compound 10] as the molecule, how does the IC50 read?
**A.** < 30 nM

**Q.** For `CCNc1nc(Nc2cn(C3C[C@]3(C)C#N)nc2C)ncc1C(F)(F)F` (single isomer, unassigned) [Compound 6], which IC50 is on record?
**A.** < 30 nM

**Q.** `Cc1nn(C2C[C@@]2(C)C#N)cc1Nc1ncc(C(F)(F)F)c(NC2CC2)n1` (single isomer, unassigned) [Compound 9] was tested. Which IC50 did it give?
**A.** < 30 nM

**Q.** Which IC50 does the source give for `CCNc1nc(Nc2cn(C3C[C@@]3(C)C#N)nc2C)ncc1Br` (single isomer, unassigned) [Compound 12] here?
**A.** < 30 nM

**Q.** `CCNc1nc(Nc2cnn(C3C[C@H]3C#N)c2C)ncc1C(F)(F)F` (single isomer, unassigned) [Compound 19] was tested. Which IC50 did it give?
**A.** < 30 nM

**Q.** Which IC50 does the source give for `CNc1nc(Nc2cn(C3C[C@@]3(C)C#N)nc2C2CC2)ncc1C(F)(F)F` (single isomer, unassigned) [Compound 2] here?
**A.** < 30 nM

**Q.** How did the IC50 turn out when `CCNc1nc(Nc2cn(C3C[C@@]3(C)C#N)nc2C2CC2)ncc1C(F)(F)F` (single isomer, unassigned) [Compound 1, 2-(3-cyclopropyl-4-((4-(ethylamino)-5-(trifluoromethyl)pyrimidin-2-yl)amino)-1H-pyrazol-1-yl)-1-methylcyclopropanecarbonitrile] was run?
**A.** < 30 nM

Source: patent US20220153728A1, “COMPOUNDS, COMPOSITIONS AND METHODS” (DENALI THERAPEUTICS INC., priority 2017, published 2022)
